Each molecule was assayed against T1, microvirin (MVN) (Microcystis aeruginosa, UniProt Q2MDE2) (assay: CFG glycan microarray V5.[…], fluorescence). Conditions: biotinylated MVN 200 μg/mL, Alexa Fluor 488-avidin; glycan immobilised via spacer.
T1 construct: full-length, N-terminal hexahistidine tag (pET-15b), E. coli BL21(DE3), Ni-NTA purified, biotinylated with NHS-SS-biotin
T1 sequence (Q2MDE2 1-108): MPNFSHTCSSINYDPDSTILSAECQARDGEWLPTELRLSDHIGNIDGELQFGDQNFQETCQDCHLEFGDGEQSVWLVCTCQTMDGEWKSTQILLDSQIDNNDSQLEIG
Type: binding

Molecule	Fluorescence (%) ^a [%]
CC(=O)N[C@@H]1[C@@H](O)[C@H](O[C@@H]2O[C@H](CO)[C@@H](O[C@@H]3O[C@H](CO[C@H]4O[C@H](CO[C@H]5O[C@H](CO)[C@@H](O)[C@H](O)[C@@H]5O)[C@@H](O)[C@H](O[C@H]5O[C@H](CO)[C@@H](O)[C@H](O)[C@@H]5O[C@H]5O[C@H](CO)[C@@H](O)[C@H](O)[C@@H]5O)[C@@H]4O)[C@@H](O)[C@H](O[C@H]4O[C@H](CO)[C@@H](O)[C@H](O)[C@@H]4O[C@H]4O[C@H](CO)[C@@H](O)[C@H](O)[C@@H]4O)[C@@H]3O)[C@H](O)[C@H]2NC(C)=O)[C@@H](CO)O[C@H]1NC(=O)C[C@H](N)C(=O)O [compound 211, Manα1-6(Manα1-2Manα1-3)Manα1-6(Manα1-2Manα1-3)Manβ1-4GlcNAcβ1-4GlcNAcβ-Sp12]	31.7
CC(=O)N[C@@H]1[C@@H](O)[C@H](O[C@@H]2O[C@H](CO)[C@@H](O[C@@H]3O[C@H](CO[C@H]4O[C@H](CO[C@H]5O[C@H](CO)[C@@H](O)[C@H](O)[C@@H]5O[C@H]5O[C@H](CO)[C@@H](O)[C@H](O)[C@@H]5O)[C@@H](O)[C@H](O[C@H]5O[C@H](CO)[C@@H](O)[C@H](O)[C@@H]5O)[C@@H]4O)[C@@H](O)[C@H](O[C@H]4O[C@H](CO)[C@@H](O)[C@H](O)[C@@H]4O[C@H]4O[C@H](CO)[C@@H](O)[C@H](O)[C@@H]4O[C@H]4O[C@H](CO)[C@@H](O)[C@H](O)[C@@H]4O)[C@@H]3O)[C@H](O)[C@H]2NC(C)=O)[C@@H](CO)O[C@H]1NC(=O)C[C@H](N)C(=O)O [compound 212, Manα1-2Manα1-6(Manα1-3)Manα1-6(Manα1-2Manα1-2Manα1-3)Manβ1-4GlcNAcβ1-4GlcNAcβ-Sp12]	100.0
CC(=O)N[C@@H]1[C@@H](O)[C@H](O[C@@H]2O[C@H](CO)[C@@H](O[C@@H]3O[C@H](CO[C@H]4O[C@H](CO[C@H]5O[C@H](CO)[C@@H](O)[C@H](O)[C@@H]5O[C@H]5O[C@H](CO)[C@@H](O)[C@H](O)[C@@H]5O)[C@@H](O)[C@H](O[C@H]5O[C@H](CO)[C@@H](O)[C@H](O)[C@@H]5O[C@H]5O[C@H](CO)[C@@H](O)[C@H](O)[C@@H]5O)[C@@H]4O)[C@@H](O)[C@H](O[C@H]4O[C@H](CO)[C@@H](O)[C@H](O)[C@@H]4O[C@H]4O[C@H](CO)[C@@H](O)[C@H](O)[C@@H]4O[C@H]4O[C@H](CO)[C@@H](O)[C@H](O)[C@@H]4O)[C@@H]3O)[C@H](O)[C@H]2NC(C)=O)[C@@H](CO)O[C@H]1NC(=O)C[C@H](N)C(=O)O [compound 213, Manα1-2Manα1-6(Manα1-2Manα1-3)Manα1-6(Manα1-2Manα1-2Manα1-3)Manβ1-4GlcNAcβ1-4GlcNAcβ-Sp12]	19.8
Manα1-2Manα1-2Manα1-3Manα-Sp9 [compound 208]	63.8
Manα1-2Manα1-2Manα1-6(Manα1-3)Manα-Sp9 [compound 215]	78.1
Manα1-2Manα1-3Manα-Sp9 [compound 210]	57.7
Manα1-2Manα1-6(Manα1-2Manα1-3)Manα1-6(Manα1-2Manα1-2Manα1-3)Manα-Sp9 [compound 317]	34.9
Manα1-2Manα1-6(Manα1-2Manα1-3)Manα-Sp9 [compound 209]	39.5
Manα1-2Manα1-6(Manα1-3)Manα1-6(Manα1-2Manα1-2Manα1-3)Manα-Sp9 [compound 316]	48.8

— article PMC4297448, “Detection of distinct glycosylation patterns on human γ-glutamyl transpeptidase 1 using antibody-lectin sandwich array (ALSA) technology” (BMC Biotechnology, 2014)
